From ChEMBL document CHEMBL3352097, “Small molecule inhibitors targeting activator protein 1 (AP-1)” (J Med Chem, 2014)
Bridge positions count the residues as written; N and C are the ends. Peptide text beside a SMILES is read from it.

Legend:
[1] = biological target: T1, Transcription factor Jun (Homo sapiens, UniProt P05412); test: Inhibition of UVB-induced AP-1 activation (unknown origin) by cell-based assay
[2] = biological target: Transcription factor Jun (Mus musculus) (UniProt P05627); test: Inhibition of AP-1-mediated transcriptional activation in lipopolysaccharide-stimulated mouse RAW 264.7 cells assessed ratio of luciferase activity normalized to Renilla luciferase activity by luciferase reporter gene assay
Transcription factor Jun (Mus musculus), sequence (P05627 whole entry): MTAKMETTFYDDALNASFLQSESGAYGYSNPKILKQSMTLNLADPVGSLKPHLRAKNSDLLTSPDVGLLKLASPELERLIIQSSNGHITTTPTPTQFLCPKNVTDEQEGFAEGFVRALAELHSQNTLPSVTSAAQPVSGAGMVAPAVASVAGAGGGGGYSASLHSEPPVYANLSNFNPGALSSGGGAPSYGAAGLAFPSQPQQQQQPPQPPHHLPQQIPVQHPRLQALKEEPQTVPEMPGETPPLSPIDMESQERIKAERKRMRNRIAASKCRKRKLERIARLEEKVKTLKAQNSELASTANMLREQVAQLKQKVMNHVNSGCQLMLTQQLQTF

[3] = biological target: T1, Transcription factor Jun; test: Inhibition of AP-1-mediated transcriptional activation in human HeLa cells at 1 ug/ml; type: cell-based
[4] = biological target: T1, Transcription factor Jun; test: Inhibition of AP-1-mediated transcriptional activation in human HeLa cells at 10 ug/ml; type: cell-based
[5] = biological target: T1, Transcription factor Jun; test: Inhibition of AP-1-mediated transcriptional activation in HEK293 cells by luciferase reporter gene assay; type: cell-based
[6] = biological target: T1, Transcription factor Jun; test: Inhibition of AP-1 (unknown origin) by FRET assay
[7] = biological target: T1, Transcription factor Jun; test: Inhibition of AP-1-mediated transcriptional activation in human Jurkat cells by luciferase reporter gene assay; type: cell-based
[8] = species on record: Rattus norvegicus; test: Antiinflammatory activity in adjuvant-induced arthritis rat model assessed as reduction in swelling in noninjected foot; type: functional
[9] = biological target: T1, Transcription factor Jun; test: Inhibition of AP-1 bZIP domain DNA binding activity (unknown origin) by ELISA
[10] = biological target: T2, Transcription factor AP1 (Homo sapiens, UniProt P01100+P05412); test: Inhibition of Fos-Jun dimer formation (unknown origin) by EMSA method; type: protein-complex assay
T2 sequence (P05412 whole entry): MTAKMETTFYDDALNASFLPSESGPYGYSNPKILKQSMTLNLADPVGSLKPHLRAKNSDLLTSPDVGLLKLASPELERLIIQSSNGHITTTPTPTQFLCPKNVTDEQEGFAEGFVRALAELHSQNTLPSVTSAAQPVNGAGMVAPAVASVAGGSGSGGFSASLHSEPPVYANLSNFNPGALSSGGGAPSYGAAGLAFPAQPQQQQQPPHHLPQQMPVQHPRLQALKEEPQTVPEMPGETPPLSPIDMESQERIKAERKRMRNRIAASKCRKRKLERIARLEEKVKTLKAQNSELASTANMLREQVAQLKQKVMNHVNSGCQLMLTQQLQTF
T2 sequence (P01100 whole entry): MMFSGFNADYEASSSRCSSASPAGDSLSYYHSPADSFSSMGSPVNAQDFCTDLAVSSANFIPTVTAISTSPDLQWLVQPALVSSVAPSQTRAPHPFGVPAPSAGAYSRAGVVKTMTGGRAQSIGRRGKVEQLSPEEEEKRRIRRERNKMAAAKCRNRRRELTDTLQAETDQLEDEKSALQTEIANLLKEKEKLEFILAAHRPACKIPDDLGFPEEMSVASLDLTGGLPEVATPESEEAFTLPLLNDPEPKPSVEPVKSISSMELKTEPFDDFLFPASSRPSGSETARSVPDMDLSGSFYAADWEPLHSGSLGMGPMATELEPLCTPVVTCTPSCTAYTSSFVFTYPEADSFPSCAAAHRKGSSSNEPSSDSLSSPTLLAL

[11] = biological target: Nuclear factor NF-kappa-B complex (Homo sapiens, UniProt Q00653+P19838+Q04206); test: Inhibition of NF-kappaB-mediated transcriptional activation in human Jurkat cells by luciferase reporter gene assay; type: cell-based
Nuclear factor NF-kappa-B complex, sequence (P19838 1-433 limits assumed): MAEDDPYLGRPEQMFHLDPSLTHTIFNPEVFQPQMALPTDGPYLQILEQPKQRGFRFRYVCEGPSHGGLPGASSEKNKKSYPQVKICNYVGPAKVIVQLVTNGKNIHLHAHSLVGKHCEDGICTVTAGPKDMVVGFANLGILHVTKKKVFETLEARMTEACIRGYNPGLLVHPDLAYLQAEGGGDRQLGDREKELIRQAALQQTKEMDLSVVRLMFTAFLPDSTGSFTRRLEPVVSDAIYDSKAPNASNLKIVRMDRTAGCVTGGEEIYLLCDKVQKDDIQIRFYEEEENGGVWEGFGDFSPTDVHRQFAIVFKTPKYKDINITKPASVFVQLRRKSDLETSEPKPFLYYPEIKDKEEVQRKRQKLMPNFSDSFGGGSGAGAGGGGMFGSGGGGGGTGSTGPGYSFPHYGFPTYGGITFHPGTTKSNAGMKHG
Nuclear factor NF-kappa-B complex, sequence (Q00653 1-454 limits assumed): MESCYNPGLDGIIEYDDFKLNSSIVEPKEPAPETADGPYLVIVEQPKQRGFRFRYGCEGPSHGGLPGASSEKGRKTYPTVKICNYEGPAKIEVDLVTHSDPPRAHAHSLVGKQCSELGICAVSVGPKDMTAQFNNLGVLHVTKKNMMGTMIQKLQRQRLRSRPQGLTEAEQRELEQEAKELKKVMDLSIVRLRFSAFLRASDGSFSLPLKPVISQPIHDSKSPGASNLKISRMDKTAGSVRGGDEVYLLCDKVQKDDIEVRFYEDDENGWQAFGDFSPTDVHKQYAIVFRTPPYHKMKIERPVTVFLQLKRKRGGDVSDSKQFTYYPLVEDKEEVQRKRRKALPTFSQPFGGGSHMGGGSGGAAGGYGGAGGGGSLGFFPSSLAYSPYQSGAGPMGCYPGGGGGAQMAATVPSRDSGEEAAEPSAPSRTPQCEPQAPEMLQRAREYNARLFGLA
Nuclear factor NF-kappa-B complex, sequence (Q04206 whole entry): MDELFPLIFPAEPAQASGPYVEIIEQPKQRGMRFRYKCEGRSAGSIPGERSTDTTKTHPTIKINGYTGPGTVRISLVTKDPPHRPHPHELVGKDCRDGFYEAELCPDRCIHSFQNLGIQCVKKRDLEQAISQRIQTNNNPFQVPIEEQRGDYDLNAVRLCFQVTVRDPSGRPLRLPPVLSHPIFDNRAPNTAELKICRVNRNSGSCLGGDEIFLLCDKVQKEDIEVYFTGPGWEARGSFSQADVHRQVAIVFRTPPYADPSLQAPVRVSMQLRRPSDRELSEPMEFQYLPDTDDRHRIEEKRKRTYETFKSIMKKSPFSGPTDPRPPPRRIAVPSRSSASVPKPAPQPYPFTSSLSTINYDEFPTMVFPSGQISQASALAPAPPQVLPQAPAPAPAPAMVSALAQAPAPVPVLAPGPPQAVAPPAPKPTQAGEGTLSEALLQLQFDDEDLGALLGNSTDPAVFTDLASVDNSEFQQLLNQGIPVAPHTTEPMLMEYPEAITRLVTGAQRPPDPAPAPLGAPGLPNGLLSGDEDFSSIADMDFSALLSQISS

[12] = biological target: T2, Transcription factor AP1; test: Inhibition of Fos-Jun dimer formation (unknown origin); type: protein-complex assay

T1 sequence (P05412 whole entry): as the sequence (P05412 whole entry) above

## COC(=O)C1=CO[C@@H](O[C@@H]2O[C@H](CO)[C@@H](O)[C@H](O)[C@H]2O)[C@H]2[C@H]1C(C)=C[C@@]2(O)C(=O)O/C=C(\C(=O)O)c1ccc(O)c(OC)c1
[1]
  IC50: 69600 nM

## C[C@@]12CC[C@H]3[C@]4(C)CCC[C@@](C)(C(=O)O)[C@H]4C[C@H](O)[C@]3(CC1=O)C2
[2]
  Ratio: 2.69

## O=C(Nc1cc(C(F)(F)F)cc(C(F)(F)F)c1)c1cc(Br)ccc1O
[3]
  inhibition: 48.4%
[4]
  inhibition: 91.2%

## CC(=O)c1ccc(-n2c(-c3cc(-c4ccncc4)c(N4CCOCC4)s3)nc3ccccc3c2=O)cc1
[5]
  IC50: 5000 nM

## O=C(Nc1cc(C(F)(F)F)cc(C(F)(F)F)c1)c1cc(Cl)ccc1O
[3]
  inhibition: 42.4%
[4]
  inhibition: 89.1%

## C[C@@]12CC[C@@H]3[C@@](CC[C@H]4[C@@]3(C)[C@@H](O)CC[C@@]4(C)C(=O)O)(COC1=O)C2
[2]
  Ratio: 2.66

## O=C(Nc1cc(Cl)cc(Cl)c1)c1cc(I)ccc1O
[4]
  inhibition: 75.4%

## CC[C@](C)(O)C(=O)O[C@H]1C(=O)O[C@@H]2C[C@H]3C(C)=CC(=O)[C@@H](O)[C@]3(C)[C@H]3[C@@]4(O)OC[C@]32[C@@H]1[C@@H](C)[C@H]4O [GLAUCARUBINONE]
[6]
  EC50: 1490 nM

## COc1ccc2nc(-c3cccs3)nc(NN3C(=O)C=C(C)C3=O)c2c1
[7]
  IC50: 3 nM

## CCOC(=O)c1cnc(N(C)N2C(=O)C=C(C)C2=O)nc1C(F)(F)F
[7]
  IC50: 300 nM

## COc1cccc2nc(-c3cccs3)nc(NN3C(=O)C=C(C)C3=O)c12 [AS-602868]
[7]
  IC50: 8 nM
[8]
  inhibition (INH): 65%

## Cc1nc(Cl)ncc1C(=O)Nc1cc(Cl)cc(Cl)c1
[7]
  IC50: 500 nM

## CC(=O)N[C@H]1CSSC[C@@H](C(N)=O)NC(=O)CNC(=O)[C@H](CC(=O)O)NC(=O)[C@H](C)NC(=O)[C@H](CC(C)C)NC(=O)[C@H](CC(=O)O)NC(=O)[C@H](CC(C)C)NC(=O)[C@H](CCC(N)=O)NC(=O)CNC1=O (Ac-CGQLDLADGC-NH2; disulfide 1-10)
[9]
  IC50: 64000 nM

## CCOC(=O)c1cnc(NN2C(=O)C=C(C)C2=O)nc1-c1ccc(C)s1
[7]
  IC50: 45 nM

## CCOC(=O)c1cnc(NN2C(=O)C=C(C)C2=O)nc1CC
[7]
  IC50: 400 nM

## CC1(C)CC[C@]2(C(=O)O)CC[C@]3(C)C(=CC[C@@H]4[C@@]5(C)CC[C@H](O[C@@H]6O[C@H](C(=O)O)[C@@H](O)[C@H](O[C@@H]7OC[C@H](O)[C@H](O)[C@H]7O)[C@H]6O)C(C)(C)[C@@H]5CC[C@]43C)[C@@H]2C1
[10]
  IC50: 130000 nM

## Cc1cc(C(=O)Nc2ccc(C(F)(F)F)cc2C(F)(F)F)nc(Cl)n1
[7]
  IC50: > 10000 nM

## O=C(Nc1cc(C(F)(F)F)cc(C(F)(F)F)c1)c1nnc(Cl)cc1C(F)(F)F
[7]
  IC50: 10000 nM
[11]
  IC50: 10000 nM

## C[C@@]12CCC[C@@](C)(C(=O)O)[C@H]1CC[C@@]13CC(=O)O[C@@](CO)(CC[C@H]12)C3
[2]
  Ratio: 2.58

## CNc1nc(C)c(-c2nc3ccccc3c(=O)n2-c2ccccc2C)s1
[5]
  IC50: 5500 nM

## C[C@@]12CC[C@@H]3[C@@](C/C1=N\O)(C2)[C@H](O)C[C@H]1[C@@]3(C)[C@@H](O)CC[C@@]1(C)C(=O)O
[2]
  Ratio: 2.69

## O=C(Nc1cc(C(F)(F)F)cc(C(F)(F)F)c1)c1cnc(Cl)nc1C(F)(F)F
[7]
  IC50: 50 nM
[11]
  IC50: 50 nM

## CNc1nc(C)c(-c2nc3ccccc3c(=O)n2-c2ccc(Cl)cc2)s1
[5]
  IC50: 1200 nM

## CC(Cc1ccc(O)c(O)c1)C(C)Cc1ccc(O)c(O)c1 (centres undefined) [NORDIHYDROGUAIARETIC ACID]
[12]
  IC50: 7.9 nM

## O=C(Nc1cc(C(F)(F)F)cc(C(F)(F)F)c1)c1cnc(Cl)nc1Cl
[11]
  IC50: 600 nM

## O=C(Nc1ccc(C(F)(F)F)cc1C(F)(F)F)c1cc(C(F)(F)F)nc(Cl)n1
[7]
  IC50: > 10000 nM

## C[C@@]12CC[C@H]3[C@]4(C)CCC[C@@](C)(C(=O)O)[C@H]4C[C@H](O)[C@]3(CC(=O)O1)C2
[2]
  Ratio: 2.39

## CC1=CC[C@@H]2[C@](CC#N)(CC[C@H]3[C@@]2(C)CCC[C@@]3(C)C(=O)O)C1
[2]
  Ratio: 2.22

## O=C(Nc1cc(C(F)(F)F)cc(C(F)(F)F)c1)c1cnc(F)nc1C(F)(F)F
[11]
  IC50: 400 nM

## Cc1ccccc1-n1c(-c2sc(Nc3ccccc3)nc2C)nc2ccccc2c1=O
[5]
  IC50: 5500 nM

## C[C@H]1[C@H](C)CC[C@]2(COC(=O)c3ccccc3C(=O)O)CC[C@]3(C)C(=CC[C@@H]4[C@@]5(C)CC[C@H](OC(=O)c6ccccc6C(=O)O)C(C)(C)[C@@H]5CC[C@]43C)[C@H]12
[10]
  IC50: 4000 nM

## CCOC(=O)c1cnc(C(F)(F)F)nc1NN1C(=O)C=C(C)C1=O
[7]
  IC50: 1000 nM
[11]
  IC50: 1000 nM

## COc1cc(CC(C)C(C)Cc2ccc(O)c(OC)c2)ccc1O (centres undefined) [DIHYDROGUAIARETIC ACID]
[12]
  IC50: 210 nM
